Laboratory results reported in patent publication US20120128705A1, “C6ORF167 PEPTIDES AND VACCINES CONTAINING THE SAME” (OncoTherapy Science, Inc., priority 2009, published 2012).
Ends that are not written are not given here.

What follows are substances tested on peptide-pulsed A24LCL (assay: IFN-gamma ELISPOT assay on CTLs induced with peptide (HLA-A*2402)). Details: CTLs from HLA-A*2402 positive donor, 3 rounds of stimulation, day 21; vs control wells without peptide.
Assay type: cell-based, human
Source text: Monocyte-derived dendritic cells (DCs) were used as antigen-presenting cells (APCs) to induce cytotoxic T lymphocyte (CTL) responses against peptides presented on human leukocyte antigen (HLA). DCs were generated in vitro as described elsewhere (Nakahara S et al., Cancer Res 2003 Jul. 15, 63(14): 4112-8). Specifically, peripheral blood mononuclear cells (PBMCs) isolated from a normal volunteer (HLA-A*2402 positive) by Ficoll-Plaque (Pharmacia) solution were separated by adherence to a plastic tissue culture dish (Becton Dickinson) so as to enrich them as the monocyte fraction. The monocyte-enriched population was cultured in the presence of 1,000 U/ml of granulocyte-macrophage colony-stimulating factor (GM-CSF) (R&D System) and 1,000 U/ml of interleukin (IL)-4 (R&D System) in AIM-V Medium (Invitrogen) containing 2% heat-inactivated autologous serum (AS). After 7 days of culture, the cytokine-induced DCs were pulsed with 20 micro-g/ml of each of the synthesized peptides in the presence of 3 micro-g/ml of beta 2-microglobulin for 3 hrs at 37 degrees C. in AIM-V Medium. The generated cells appeared to express DC-associated molecules, such as CD80, CD83, CD86 and HLA class II, on their cell surfaces (data not shown). These peptide-pulsed DCs were then inactivated by X-irradiation (20 Gy) and mixed at a 1:20 ratio with autologous CD8+ T cells, obtained by positive selection with CD8 positive Isolation Kit (Dynal). These cultures were set up in 48-well plates (Corning); each well contained 1.5×10^4 peptide-pulsed DCs, 3×10^5 CD8+ T cells and 10 ng/ml of IL-7 (R&D System) in 0.5 ml of AIM-V/2% AS medium. Three days later, these cultures were supplemented with IL-2 (CHIRON) to a final concentration of 20 IU/ml. On days 7 and 14, the T cells were further stimulated with the autologous peptide-pulsed DCs. The DCs were prepared each time by the same way described above. CTL was tested against peptide-pulsed A24LCL cells after the 3rd round of peptide stimulation on day 21 (Tanaka H et al., Br J Cancer 2001 Jan. 5, 84(1): 94-9; Umano Y et al., Br J Cancer 2001 Apr. 20, 84(8): 1052-7; Uchida N et al., Clin Cancer Res 2004 Dec. 15, 10(24): 8577-86; Suda T et al., Cancer Sci 2006 May, 97(5): 411-9; Watanabe T et al., Cancer Sci 2005 August, 96(8): 498-506).
(§1) To examine specific CTL activity, interferon (IFN)-gamma enzyme-linked immunospot (ELISPOT) assay and IFN-gamma enzyme-linked immunosorbent assay (ELISA) were performed. Specifically, peptide-pulsed A24LCL (1×10^4/well) was prepared as stimulator cells. Cultured cells in 48 wells were used as responder cells. IFN-gamma ELISPOT assay and IFN-gamma ELISA assay were performed under manufacture procedure.

Substance	Peptide specific CTL activity: IFN-gamma production by ELISPOT
IYIDgVQEVF (IYIDGVQEVF; not fully specified; printed as IYIDgVQEVF) [SEQ ID NO: 33]	potent IFN-gamma production
LVLEILYML [SEQ ID NO: 30]	potent IFN-gamma production
LYIGHLSEL [SEQ ID NO: 2]	potent IFN-gamma production
MYLHCCLTL [SEQ ID NO: 4]	potent IFN-gamma production
NFFSLFLLL [SEQ ID NO: 16]	potent IFN-gamma production
RYYYQVYSI [SEQ ID NO: 9]	potent IFN-gamma production
VYGHQFMNL [SEQ ID NO: 7]	potent IFN-gamma production

The substances below were run on peptide-pulsed A24LCL (assay: IFN-gamma ELISA assay of CTL lines (HLA-A*2402)). Details: target cells pulsed with corresponding peptide vs without peptide pulse.
Assay type: cell-based, human
Procedure: CTLs were expanded in culture using the method similar to the one described by Riddell et al. (Walter E A et al., N Engl J Med 1995 Oct. 19, 333(16): 1038-44; Riddell S R et al., Nat Med 1996 February, 2(2): 216-23). A total of 5×10^4 CTLs were suspended in 25 ml of AIM-V/5% AS medium with 2 kinds of human B-lymphoblastoid cell lines, inactivated by Mitomycin C, in the presence of 40 ng/ml of anti-CD3 monoclonal antibody (Pharmingen). One day after initiating the cultures, 120 IU/ml of IL-2 were added to the cultures. The cultures were fed with fresh AIM-V/5% AS medium containing 30 IU/ml of IL-2 on days 5, 8 and 11 (Tanaka H et al., Br J Cancer 2001 Jan. 5, 84(1): 94-9; Umano Y et al., Br J Cancer 2001 Apr. 20, 84(8): 1052-7; Uchida N et al., Clin Cancer Res 2004 Dec. 15, 10(24): 8577-86; Suda T et al., Cancer Sci 2006 May, 97(5): 411-9; Watanabe T et al., Cancer Sci 2005 August, 96(8): 498-506).
as §1

Substance	IFN-gamma production of CTL lines by ELISA
IYIDgVQEVF (IYIDGVQEVF; not fully specified; printed as IYIDgVQEVF) [SEQ ID NO: 33]	potent IFN-gamma production
LVLEILYML [SEQ ID NO: 30]	potent IFN-gamma production
LYIGHLSEL [SEQ ID NO: 2]	potent IFN-gamma production
MYLHCCLTL [SEQ ID NO: 4]	potent IFN-gamma production
NFFSLFLLL [SEQ ID NO: 16]	potent IFN-gamma production
RYYYQVYSI [SEQ ID NO: 9]	potent IFN-gamma production
VYGHQFMNL [SEQ ID NO: 7]	potent IFN-gamma production

These substances were tested on peptide-pulsed A24LCL (assay: IFN-gamma ELISA assay of CTL clones (HLA-A*2402)). Details: clones by limiting dilution; target cells pulsed with peptide.
Assay type: cell-based, human
Procedure: The dilutions were made to have 0.3, 1, and 3 CTLs/well in 96 round-bottomed micro titer plate (Nalge Nunc International). CTLs were cultured with 1×10^4 cells/well of 2 kinds of human B-lymphoblastoid cell lines, 30 ng/ml of anti-CD3 antibody, and 125 U/ml of IL-2 in a total of […] of AIM-V Medium containing 5% AS. 50 micro-1/well of IL-2 were added to the medium 10 days later so to reach a final concentration of 125 U/ml IL-2. CTL activity was tested on the 14th day, and CTL clones were expanded using the same method as described above (Uchida N et al., Clin Cancer Res 2004 Dec. 15, 10(24): 8577-86; Suda T et al., Cancer Sci 2006 May, 97(5): 411-9; Watanabe T et al., Cancer Sci 2005 August, 96(8): 498-506).
as §1

Substance	IFN-gamma production of CTL clones by ELISA
LVLEILYML [SEQ ID NO: 30]	Potent IFN-gamma productions
LYIGHLSEL [SEQ ID NO: 2]	Potent IFN-gamma productions
MYLHCCLTL [SEQ ID NO: 4]	Potent IFN-gamma productions
NFFSLFLLL [SEQ ID NO: 16]	Potent IFN-gamma productions
RYYYQVYSI [SEQ ID NO: 9]	Potent IFN-gamma productions
VYGHQFMNL [SEQ ID NO: 7]	Potent IFN-gamma productions

These substances were tested on COS7 cells transfected with C6orf167 and HLA-A*2402 (assay: Specific CTL activity against target cells exogenously expressing C6orf167 and HLA-A*2402). Details: COS7 transfected with either full length C6orf167 or HLA-A*2402 alone.
Assay type: cell-based, African green monkey
Source text: The cDNA encoding an open reading frame of target genes or HLA-A*2402 was amplified by PCR. The PCR-amplified product was cloned into pCAGGS vector. The plasmids were transfected into COS7, which is the target genes and HLA-A24-negative cell line, using lipofectamine 2000 (Invitrogen) according to the manufacturer's recommended procedures. After 2 days from transfection, the transfected cells were harvested with versene (Invitrogen) and used as the target cells (5×10^4 cells/well) for CTL activity assay.
The established CTL lines raised against these peptides were examined for their ability to recognize target cells that endogenously express C6orf167 and HLA-A*2402 molecule. Specific CTL activity against COS7 cells which transfected with both the full length of C6orf167 and HLA-A*2402 molecule gene (a specific model for the target cells that exogenously express C6orf167 and HLA-A*2402 gene) was tested using the CTL lines raised by corresponding peptide as the effecter cells. COS7 cells transfected with either full length of C6orf167 genes or HLA-A*2402 were prepared as controls.

Substance	Specific CTL activity against control COS7 cells
IYIDgVQEVF (IYIDGVQEVF; not fully specified; printed as IYIDgVQEVF) [SEQ ID NO: 33]	no significant specific CTL activity
LYIGHLSEL [SEQ ID NO: 2]	no significant specific CTL activity
RYYYQVYSI [SEQ ID NO: 9]	no significant specific CTL activity
VYGHQFMNL [SEQ ID NO: 7]	no significant specific CTL activity

Same assay, conditions: CTL lines raised by the peptide as effector cells

Substance	Specific CTL activity against COS7 cells expressing both C6orf167 and HLA-A*2402
IYIDgVQEVF (IYIDGVQEVF; not fully specified; printed as IYIDgVQEVF) [SEQ ID NO: 33]	potent CTL activity
LYIGHLSEL [SEQ ID NO: 2]	potent CTL activity
RYYYQVYSI [SEQ ID NO: 9]	potent CTL activity
VYGHQFMNL [SEQ ID NO: 7]	potent CTL activity
